Patent publication US4015974A, “Amido phosphorothiolates” (priority 1972, dated 1977)

Columns and labels:
Type in all cases: in vivo
[1] = test system: barnyard grass (Echinochloa crus-galli); experiment: Pre-emergence application, herbicidal effect on barnyard grass (Table 1); design: key: 0: not damaged; 5: completely killed; details: 20 days after application, score 0-5
Procedure, shortened: (§1)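 Compounds, formulated as water-diluted wettable powder, were applied to the soil surface after sowing and covering the seeds in pots of about 10 cm. Effects were rated on a 0 (no damage) to 5 (complete kill) scale after 20 days of greenhouse growth.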

[2] = test system: large crabgrass (Digitaria sanguinalis); experiment: Pre-emergence application, herbicidal effect on large crabgrass (Table 1); design: key: 0: not damaged; 5: completely killed; details: 20 days after application, score 0-5
Procedure, shortened: as §1

radish = experiment: Pre-emergence application, herbicidal effect on radish (Table 1); design: key: 0: not damaged; 5: completely killed; details: 20 days after application, score 0-5
Procedure, shortened: as §1

[3] = test system: redroot pigweed (Amaranthus retroflexus); experiment: Pre-emergence application, herbicidal effect on redroot pigweed (Table 1); design: key: 0: not damaged; 5: completely killed; details: 20 days after application, score 0-5
Procedure, shortened: as §1

[4] = test system: common purslane (Portulaca oleracea); experiment: Pre-emergence application, herbicidal effect on common purslane (Table 1); design: key: 0: not damaged; 5: completely killed; details: 20 days after application, score 0-5
Procedure, shortened: as §1

[5] = test system: common lambsquarter (Chenopodium album); experiment: Pre-emergence application, herbicidal effect on common lambsquarter (Table 1); design: key: 0: not damaged; 5: completely killed; details: 20 days after application, score 0-5
Procedure, shortened: as §1

rice = experiment: Water application, phytotoxicity on rice (Table 2); design: key: 0: no effect; 1: very slightly affected; 2: slightly affected; 3: moderately affected; 4: considerably affected; 5: completely killed; details: 25 days, score 0-5
Procedure, shortened: (§2)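 Ratings on a 0–5 scale taken 25 days post-treatment for rice injury, barnyard grass, and naturally emerging monochoria, false pimpernel and toothcup. Compounds as wettable powder went onto waterlogged paddy soil holding rice seedlings transplanted at 3 leaves and barnyard grass seed.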

[6] = test system: barnyard grass (Echinochloa crus-galli); experiment: Water application, herbicidal effect on barnyard grass (Table 2); design: key: 0: no effect; 1: very slightly affected; 2: slightly affected; 3: moderately affected; 4: considerably affected; 5: completely killed; details: 25 days, score 0-5
From the text: (§3) Wagner pots of 14 cm. in diameter, which had been packed with 1.5 kg. of paddy field soil, were brought into the state of paddy fields. To the pots were transplanted rice seedlings at the 3-leave stage. Further, seeds of barnyard grass (Echinochloa crus-galli) were sowed in the pots and required amounts of test compounds were applied to the soil under water lodged condition. 25 days after application, the degrees of herbicidal activity and phytotoxity were investigated on above-mentioned plants which had been transplanted and sowed, and on broad-leaved weeds, e.g., monochoria (Monochoria viaginalis Presl.), false pimpernel (Linderna pyxidaria) and toothcup (Rotala indica Koehue), which had been spontaneously germinated. The test compounds were used in the form of wettable powder. The herbicidal effects and the phytotoxity were evaluated as follows by the numerals ranging from 0 to 5.

[7] = test system: broad-leaved weeds, e.g., monochoria, false pimpernel and toothcup; experiment: Water application, herbicidal effect on broad-leaved weeds (Table 2); design: key: 0: no effect; 1: very slightly affected; 2: slightly affected; 3: moderately affected; 4: considerably affected; 5: completely killed; details: 25 days, score 0-5
From the text: as §3

[8] = test system: tobacco cut worm (Spondoptera litura); experiment: Lethal effect on tobacco cut worm (Table 5); details: tobacco cutworm, larvae on chinese cabbage leaves, 48 h
Method: The present compounds of an emulsifiable concentrate type were applied to leaves of chinese cabbage in the form of an 1000 fold dilute solution. After air-drying, third to fourth instar larvae of tobacco cut worm were released and after 48 hours the death and alive were observed.

nematode = experiment: Effect on nematode (Table 7); design: tested at 500 ppm; details: 500 p.p.m., 24 hours
Method: 0.5 ml. of a nematode-containing aqueous solution separated from food according to Baermann's method was placed in a test tube with ground stopper containing 0.5 ml. of an aqueous dilute solution of each emulsifiable concentrates of the present compounds. The concentration of the active ingredient in the mixture was adjusted to 500 p.p.m. After 24 hours, the death and alive were observed microscopically to calculate the mortality.

[9] = test system: barnyard grass (Echinochloa crus-galli); experiment: Water application, herbicidal effect on barnyard grass (Table 2); design: key: 0: not damaged; 5: completely killed; details: 25 days, score 0-5
Procedure, shortened: as §2

[10] = test system: broad-leaved weeds, e.g., monochoria, false pimpernel and toothcup; experiment: Water application, herbicidal effect on broad-leaved weeds (Table 2); design: key: 0: not damaged; 5: completely killed; details: 25 days, score 0-5
Procedure, shortened: as §2

SMILES | Herbicidal effect, barnyard grass ([1]; 20 g./a.) | Herbicidal effect, barnyard grass ([1]; 40 g./a.) | Herbicidal effect, large crabgrass ([2]; 20 g./a.) | Herbicidal effect, large crabgrass ([2]; 40 g./a.) | Herbicidal effect, radish (radish; 20 g./a.) | Herbicidal effect, radish (radish; 40 g./a.) | Herbicidal effect, redroot pigweed ([3]; 20 g./a.) | Herbicidal effect, redroot pigweed ([3]; 40 g./a.) | Herbicidal effect, common purslane ([4]; 20 g./a.) | Herbicidal effect, common purslane ([4]; 40 g./a.) | Herbicidal effect, common lambsquarter ([5]; 20 g./a.) | Herbicidal effect, common lambsquarter ([5]; 40 g./a.) | Phytotoxicity on rice (rice; 20 g/a) | Phytotoxicity on rice (rice; 40 g/a) | Herbicidal effect, barnyard grass ([1]; 10 g./a.) | Herbicidal effect, large crabgrass ([2]; 10 g./a.) | Herbicidal effect, radish (radish; 10 g./a.) | Herbicidal effect, redroot pigweed ([3]; 10 g./a.) | Herbicidal effect, common purslane ([4]; 10 g./a.) | Herbicidal effect, common lambsquarter ([5]; 10 g./a.) | other results
COP(=S)(NC(C)C)Oc1ccc(Cl)cc1Cl (stereo not shown) [Zytron, reference compound] | 3 | 4 | 1 | 3 | 0 | 0 | 0 | 1 | 1 | 2 | 0 | 2 | 0 | 0 | – | – | – | – | – | – | Herbicidal effects, barnyard grass ([6]; 20 g/a): 1; Herbicidal effects, barnyard grass ([6]; 40 g/a): 3; Herbicidal effects, broad-leaved weeds ([7]; 20 g/a): 2; Herbicidal effects, broad-leaved weeds ([7]; 40 g/a): 3
CCOP(=O)(SCC(=O)N1CCCCC1C)SCc1ccc(C(C)(C)C)cc1 (stereo not shown) [Compound 50] | 5 | 5 | 5 | 5 | 1 | 2 | 5 | 5 | 5 | 5 | 5 | 5 | 0 | 1 | 5 | 5 | 0 | 5 | 5 | 5 | Phytotoxicity on rice (rice; 10 g/a): 0; Mortality [8]: 81.2%; Mortality (nematode): 100%; Herbicidal effects, barnyard grass ([9]; 10 g/a): 5; Herbicidal effects, barnyard grass ([9]; 20 g/a): 5; Herbicidal effects, barnyard grass ([9]; 40 g/a): 5; Herbicidal effects, broad-leaved weeds ([10]; 10 g/a): 5; Herbicidal effects, broad-leaved weeds ([10]; 20 g/a): 5; Herbicidal effects, broad-leaved weeds ([10]; 40 g/a): 5
Oc1c(Cl)c(Cl)c(Cl)c(Cl)c1Cl [PCP, reference compound] | – | – | – | – | – | – | – | – | – | – | – | – | – | – | – | – | – | – | – | – | Herbicidal effect, barnyard grass ([1]; 50 g./a.): 2; Herbicidal effect, barnyard grass ([1]; 100 g./a.): 3; Herbicidal effect, large crabgrass ([2]; 50 g./a.): 2; Herbicidal effect, large crabgrass ([2]; 100 g./a.): 4; Herbicidal effect, radish (radish; 50 g./a.): 1; Herbicidal effect, radish (radish; 100 g./a.): 4; Herbicidal effect, redroot pigweed ([3]; 50 g./a.): 2; Herbicidal effect, redroot pigweed ([3]; 100 g./a.): 4; Herbicidal effect, common purslane ([4]; 50 g./a.): 2; Herbicidal effect, common purslane ([4]; 100 g./a.): 4; Herbicidal effect, common lambsquarter ([5]; 50 g./a.): 2; Herbicidal effect, common lambsquarter ([5]; 100 g./a.): 4; Phytotoxicity on rice (rice; 50 g/a): 2; Phytotoxicity on rice (rice; 100 g/a): 3; Herbicidal effects, barnyard grass ([9]; 100 g/a): 5; Herbicidal effects, broad-leaved weeds ([10]; 50 g/a): 5; Herbicidal effects, broad-leaved weeds ([10]; 100 g/a): 5; Herbicidal effects, barnyard grass ([6]; 50 g/a): 4
CCOP(=O)(SCC(=O)N1CCCCC1CC)SCc1ccc(CC)cc1 (stereo not shown) [Compound 58] | 5 | 5 | 5 | 5 | 0 | 0 | 4 | 5 | 4 | 5 | 4 | 4 | 0 | 0 | 4 | 5 | 0 | 3 | 3 | 3 | Phytotoxicity on rice (rice; 10 g/a): 0; Mortality [8]: 72.0%; Herbicidal effects, barnyard grass ([9]; 10 g/a): 5; Herbicidal effects, barnyard grass ([9]; 20 g/a): 5; Herbicidal effects, barnyard grass ([9]; 40 g/a): 5; Herbicidal effects, broad-leaved weeds ([10]; 10 g/a): 5; Herbicidal effects, broad-leaved weeds ([10]; 20 g/a): 5; Herbicidal effects, broad-leaved weeds ([10]; 40 g/a): 5
C=CCSP(=O)(OCCC)SCC(=O)N1CCCCC1CC (stereo not shown) [Compound 91] | 5 | 5 | 5 | 5 | 0 | 0 | 3 | 4 | 4 | 4 | 3 | 4 | 0 | 0 | 4 | 5 | 0 | 3 | 3 | 3 | Phytotoxicity on rice (rice; 10 g/a): 0; Herbicidal effects, barnyard grass ([9]; 20 g/a): 5; Herbicidal effects, barnyard grass ([9]; 40 g/a): 5; Herbicidal effects, broad-leaved weeds ([10]; 10 g/a): 5; Herbicidal effects, broad-leaved weeds ([10]; 20 g/a): 5; Herbicidal effects, broad-leaved weeds ([10]; 40 g/a): 5; Herbicidal effects, barnyard grass ([6]; 10 g/a): 4
CCCSP(=O)(OCC)SCC(=O)N1CCCC(C)C1 (stereo not shown) [Compound 13] | 5 | 5 | 5 | 5 | 0 | 0 | 5 | 5 | 5 | 5 | 5 | 5 | 0 | 0 | 5 | 5 | 0 | 4 | 4 | 4 | Phytotoxicity on rice (rice; 10 g/a): 0; Mortality [8]: 73.3%; Herbicidal effects, barnyard grass ([9]; 10 g/a): 5; Herbicidal effects, barnyard grass ([9]; 20 g/a): 5; Herbicidal effects, barnyard grass ([9]; 40 g/a): 5; Herbicidal effects, broad-leaved weeds ([10]; 10 g/a): 5; Herbicidal effects, broad-leaved weeds ([10]; 20 g/a): 5; Herbicidal effects, broad-leaved weeds ([10]; 40 g/a): 5
CCOP(=O)(SCCc1ccccc1)SCC(=O)N1CCCCC1C (stereo not shown) [Compound 63] | 5 | 5 | 5 | 5 | 0 | 0 | 5 | 5 | 5 | 5 | 4 | 5 | 0 | 0 | 5 | 4 | 0 | 4 | 4 | 4 | Phytotoxicity on rice (rice; 10 g/a): 0; Herbicidal effects, barnyard grass ([9]; 20 g/a): 5; Herbicidal effects, barnyard grass ([9]; 40 g/a): 5; Herbicidal effects, broad-leaved weeds ([10]; 10 g/a): 5; Herbicidal effects, broad-leaved weeds ([10]; 20 g/a): 5; Herbicidal effects, broad-leaved weeds ([10]; 40 g/a): 5; Herbicidal effects, barnyard grass ([6]; 10 g/a): 4
